Results published in paper PMC8518494 (Angewandte Chemie (International Ed. in English), 2021).
Read-outs that look alike come from different tables or passages of the source.

Assays:
Y27A-TbpA = target: T1, Y27A-TbpA (Escherichia coli, UniProt P31550, Y27A); assay: Nanopore recording of ligand binding to Y27A-TbpA inside ClyA-AS
T1 sequence (P31550 19-327 Y27A): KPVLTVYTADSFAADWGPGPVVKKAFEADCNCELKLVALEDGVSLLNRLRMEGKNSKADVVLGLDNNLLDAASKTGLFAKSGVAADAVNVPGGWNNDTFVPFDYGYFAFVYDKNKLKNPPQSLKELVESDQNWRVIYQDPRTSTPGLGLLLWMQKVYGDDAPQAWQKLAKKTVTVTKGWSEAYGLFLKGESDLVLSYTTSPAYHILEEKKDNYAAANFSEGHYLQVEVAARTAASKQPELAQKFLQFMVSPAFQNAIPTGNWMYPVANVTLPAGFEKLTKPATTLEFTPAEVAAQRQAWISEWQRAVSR

WT-TbpA [1] = target: T2, WT-TbpA (Escherichia coli, UniProt P31550)
T2 sequence (P31550 19-327): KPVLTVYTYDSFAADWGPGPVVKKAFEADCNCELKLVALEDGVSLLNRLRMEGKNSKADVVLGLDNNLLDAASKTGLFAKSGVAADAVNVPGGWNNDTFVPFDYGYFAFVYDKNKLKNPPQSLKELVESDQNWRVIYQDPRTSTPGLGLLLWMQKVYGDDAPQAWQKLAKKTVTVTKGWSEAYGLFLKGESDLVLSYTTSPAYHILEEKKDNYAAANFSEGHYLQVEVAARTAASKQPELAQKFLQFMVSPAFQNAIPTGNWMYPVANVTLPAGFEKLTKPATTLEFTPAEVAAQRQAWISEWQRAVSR

WT-TbpA [2] = target: T2, WT-TbpA; assay: biochemical

For `Cc1ncc(C[n+]2csc(CCO[P@](=O)(O)OP(=O)(O)O)c2C)c(N)n1` [ThDP, thiamine diphosphate], the Kd (Y27A-TbpA) was roughly 2000 nM, the “ΔIres%(ThDP1)” value (Y27A-TbpA; 2 μM ThDP added to cis, first type of event) was 4.0±0.1% and the “ΔIres%(ThDP2)” value (Y27A-TbpA; 2 μM ThDP added to cis, second type of event) was 7.2±0.1%. For the same compound, the “capture frequency for both events” value (Y27A-TbpA; 2 μM ThDP, cis) was 6.5 ± 3 µM⁻¹ s⁻¹, the koff (Y27A-TbpA; read-out: k off(ThDP1)) was 2.9 ± 0.4 s⁻¹ and the koff (Y27A-TbpA; read-out: k off(ThDP2)) was 1.7 ± 0.3 s⁻¹.
With `Cc1ncc(C[n+]2csc(CCOP(=O)(O)O)c2C)c(N)n1` [ThMP, thiamine monophosphate] the “ΔIres%(ThMP1)” value (Y27A-TbpA; 0.1 μM ThMP added to cis, first kind of bound event) was 4.8±0.2%, the “ΔIres%(ThMP2)” value (Y27A-TbpA; 0.1 μM ThMP added to cis, second kind of bound event) was 7.3±0.3% and the kon (Y27A-TbpA; read-out: capture frequency (an approximate k on) for both events) was 1.6e+07 ± 4e+06 M⁻¹ s⁻¹. The koff (Y27A-TbpA; read-out: k off(ThMP1)) was 2.3 ± 0.4 s⁻¹ and the koff (Y27A-TbpA; read-out: k off(ThMP2)) was 2 ± 0.2 s⁻¹.
In the case of `Cc1ncc(C[n+]2csc(CCO)c2C)c(N)n1` [thiamine, Thiamine], the Kd (Y27A-TbpA; Kd app(cis), thiamine added to cis, Hill curve fit to bound fraction) is reported as 23.1 ± 0.1 nM, the Kd (Y27A-TbpA; Kd app(trans), thiamine added to trans) is reported as 91.1 ± 0.4 nM and the “difference in apparent Kd between cis and trans” value (Y27A-TbpA; Y27A-TbpA) is reported as 4 fold. The “difference in k on rates between cis and trans” value (Y27A-TbpA; Y27A-TbpA) was 4 fold, the “ΔIres%(thiamine)” value (Y27A-TbpA; Y27A-TbpA 15 nM cis, 4 μM thiamine added to cis, −45 mV) was 6.9±0.6% and the “Ires%(thiamine), closed state” value (Y27A-TbpA; Y27A-TbpA, thiamine-bound state) was 48.4±0.9%. It also gave a koff (Y27A-TbpA; read-out: k off(cis)) of 1.8 ± 0.3 s⁻¹, a koff (Y27A-TbpA; read-out: k off(trans)) of 1.7 ± 0.1 s⁻¹ and a kon (Y27A-TbpA; read-out: k on(cis)) of 6.9e+07 ± 9e+06 M⁻¹ s⁻¹. For the same compound, the kon (Y27A-TbpA; read-out: k on(trans)) was 1.4e+07 ± 3e+06 M⁻¹ s⁻¹, the “effect of addition of thiamine to the trans chamber” value (Y27A-TbpA; thiamine added to trans, Y27A-TbpA in cis) was “induced thiamine events” and the Hill coefficient (Y27A-TbpA; thiamine, cis and trans) was 1. The “ΔIres%(thiamine)” value (WT-TbpA [1]; WT-TbpA 15 nM cis, 4 μM thiamine added to cis, −45 mV, 150 mM NaCl, 15 mM Tris.HCl pH 7.5) was 3.1±0.6%, the “Ires%(thiamine), closed state” value (WT-TbpA [1]; WT-TbpA, thiamine-bound state) was 45.9±0.8% and the “effect of addition of thiamine to the trans solution” value (WT-TbpA [1]; thiamine added to trans, WT-TbpA in cis) was “did not elicit additional current blockades”. For the same compound, the Kd (WT-TbpA [2]) was 67 ± 5 nM.
